Measured values as given in article PMC10967822, “Antimicrobial Indole-3-Carboxamido-Polyamine Conjugates Target Bacterial Membranes and Are Antibiotic Potentiators” (Biomolecules, 2024).
In brackets after ≈: the same amount, converted by molar mass.

Key:
S. aureus ATCC 25923 = assay: MIC, broth dilution, S. aureus; assay type: cell-based, Staphylococcus aureus; conditions: Staphylococcus aureus, ATCC25923; S. aureus ATCC 25923, 18 h; read-out: MIC Sa
MRSA ATCC 43300 = assay: MIC, broth microdilution (CO-ADD), MRSA; assay type: cell-based, methicillin-resistant S. aureus; conditions: Staphylococcus aureus; MRSA ATCC 43300; top dose 32 µg/mL; read-out: MIC MRSA
P. aeruginosa ATCC 27853 [1] = assay: MIC, broth dilution, P. aeruginosa; assay type: cell-based, Pseudomonas aeruginosa; conditions: Pseudomonas aeruginosa, ATCC27853; P. aeruginosa ATCC 27853, 18 h; read-out: MIC Pa
E. coli ATCC 25922 [2] = assay: MIC, broth dilution, E. coli; assay type: cell-based, Escherichia coli; conditions: Escherichia coli, ATCC25922; E. coli ATCC 25922, 18 h
A. baumannii ATCC 19606 = assay: MIC, broth microdilution (CO-ADD), A. baumannii; assay type: cell-based, Acinetobacter baumannii; conditions: Acinetobacter baumannii, ATCC19606, top dose 32 µg/mL
C. albicans ATCC 90028 = assay: Antifungal MIC (CO-ADD), C. albicans; assay type: cell-based; conditions: Candida albicans, ATCC90028, top dose 32 µg/mL
Procedure, shortened: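 Yeast inocula prepared from YPD-agar colonies grown 3 days at 30 °C, diluted in YNB broth to 2.5 × 10^3 CFU/mL and incubated 36 h at 35 °C without shaking. C. albicans MIC read at OD530; C. neoformans MIC read at OD570–600 after 3 h with 0.006% resazurin.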

[3] = tested on: C. neoformans ATCC 208821; assay: Antifungal MIC (CO-ADD), C. neoformans; assay type: cell-based; conditions: Cryptococcus neoformans, ATCC208821, top dose 32 µg/mL
Procedure: For the antifungal assay, fungi strains were cultured for 3 days on YPD agar at 30 °C. A yeast suspension of 1 × 10^6 to 5 × 10^6 CFU/mL was prepared from five colonies. These stock suspensions were diluted with a yeast nitrogen base (YNB) (Becton Dickinson, 233520, New South Wales, Australia) broth to a final concentration of 2.5 × 10^3 CFU/mL. […] The plates were covered and incubated at 35 °C for 36 h without shaking. C. albicans MICs were determined by measuring the absorbance at OD530. For C. neoformans, resazurin was added at a 0.006% final concentration to each well and incubated for a further 3 h before the MICs were determined by measuring the absorbance at OD570–600. […] Fluconazole was used as a positive fungal inhibitor standard for C. albicans and C. neoformans. […] The quality control (QC) of the assays was determined by the antimicrobial controls and the Z′-factor (using positive and negative controls).

P. aeruginosa ATCC 27853 [4] = assay: Doxycycline potentiation against P. aeruginosa; assay type: cell-based, Pseudomonas aeruginosa; conditions: doxycycline at 2 µg/mL (4.5 µM); for Dox/Pa fold-change (intrinsic MIC / combination MIC): P. aeruginosa ATCC 27853; for Dox/Pa: concentration required to restore doxycycline activity (combination MIC): P. aeruginosa ATCC 27853, mean n = 3
From the text: (§1) These measurements were independently repeated in triplicate.

E. coli ATCC 25922 [5] = assay: Erythromycin potentiation against E. coli; assay type: cell-based, Escherichia coli; conditions: erythromycin at 2 µg/mL (2.7 µM); for Erythro/Ec fold-change (intrinsic MIC / combination MIC): E. coli; for Erythro/Ec: concentration required to restore erythromycin activity (combination MIC): mean n = 3
From the text: as §1

[6] = Cytotoxicity assay (resazurin); assay type: cell-based; conditions: human, HEK293 cells, mean n = 2
human red blood cells = assay: Hemolytic assay; assay type: cell-based; conditions: 10% hemolytic activity, mean n = 2
Procedure, shortened: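 Washed human erythrocytes (0.5 × 10^8 cells/mL in 0.9% NaCl) were incubated with compounds for 1 h at 37 °C. Haemoglobin release was read as supernatant OD405. HC10 and HC50 came from sigmoidal dose–response fits.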

[7] = tested on: K. pneumoniae ATCC 700603; assay: MIC, broth microdilution (CO-ADD), K. pneumoniae; conditions: top dose 32 µg/mL

Compound | MIC (S. aureus ATCC 25923) | MIC (MRSA ATCC 43300) | MIC (P. aeruginosa ATCC 27853 [1]) | MIC (E. coli ATCC 25922 [2]) | MIC (A. baumannii ATCC 19606) | MIC (C. albicans ATCC 90028) | MIC [3] | Dox/Pa fold-change (intrinsic MIC / combination MIC) (P. aeruginosa ATCC 27853 [4]) | Dox/Pa: concentration required to restore doxycycline activity (combination MIC) (P. aeruginosa ATCC 27853 [4]) | Erythro/Ec fold-change (intrinsic MIC / combination MIC) (E. coli ATCC 25922 [5]) | Erythro/Ec: concentration required to restore erythromycin activity (combination MIC) (E. coli ATCC 25922 [5]) | IC50 at 20 h [6] | Hemolysis HC10 (human red blood cells) | MIC Kp [7]
Cc1ccc2[nH]cc(C(=O)NCCCNCCCCCCCCCCCCNCCCNC(=O)c3c[nH]c4ccc(C)cc34)c2c1.O=C(O)C(F)(F)F.O=C(O)C(F)(F)F [Compound 15f] | 3.65 µM | ≤ 0.29 µM | 58.3 µM | 29.2 µM | ≤ 0.29 µM | ≤ 0.29 µM | ≤ 0.29 µM | 0.5 fold | 117 µM | 1 fold | 29.2 µM | 0.55 µM | >37 µM | >37.3 µM
O=C(NCCCNCCCCCCCCCCCCNCCCNC(=O)c1c[nH]c2c(F)cccc12)c1c[nH]c2c(F)cccc12.O=C(O)C(F)(F)F.O=C(O)C(F)(F)F [Compound 16f] | 231 µM | ≤ 0.29 µM | 116 µM | 231 µM | > 37 µM | > 37 µM | ≤ 0.29 µM | 1 fold | 116 µM | 1 fold | 231 µM | > 37 µM | >37 µM | >37 µM
Cc1ccc2[nH]cc(C(=O)NCCCNCCCCCCNCCCNC(=O)c3c[nH]c4ccc(C)cc34)c2c1 [Compound 15b] | 259 µM (≈ 141 µg/mL) | 5.18 µM (≈ 2.82 µg/mL) | > 259 µM | 129 µM (≈ 70.3 µg/mL) | > 41 µM | > 41 µM | ≤ 0.32 µM | > 8 fold | 32.4 µM | 4 fold | 32.4 µM | > 41 µM | >41 µM | >41 µM
O=C(NCCCNCCCCCCCCCCCCNCCCNC(=O)c1c[nH]c2ccc(Br)cc12)c1c[nH]c2ccc(Br)cc12.O=C(O)C(F)(F)F.O=C(O)C(F)(F)F [Compound 13f] | 3.17 µM | ≤ 0.25 µM | 203 µM | > 203 µM | 2.03 µM | ≤ 0.25 µM | ≤ 0.25 µM | 4 fold | 50.7 µM | > 8 fold | 25.3 µM | ≤ 0.25 µM | 14.2 µM | ≤0.25 µM
Cc1cccc2c(C(=O)NCCCNCCCCCCNCCCNC(=O)c3c[nH]c4c(C)cccc34)c[nH]c12 [Compound 18b] | 129 µM (≈ 70.3 µg/mL) | > 41 µM | > 259 µM | 129 µM (≈ 70.3 µg/mL) | > 41 µM | > 41 µM | ≤ 0.32 µM | > 8 fold | 32.4 µM | 4 fold | 32.4 µM | > 41 µM | >41 µM | >41 µM
Cc1ccc2[nH]cc(C(=O)NCCCNCCCCCCCCNCCCNC(=O)c3c[nH]c4ccc(C)cc34)c2c1 [Compound 15d] | 31.2 µM (≈ 17.9 µg/mL) | ≤ 0.31 µM | 250 µM (≈ 143 µg/mL) | 125 µM (≈ 71.6 µg/mL) | > 40 µM | > 40 µM | ≤ 0.31 µM | 8 fold | 31.2 µM | 4 fold | 31.2 µM | > 40 µM | >40 µM | >40 µM
COc1ccc2[nH]cc(C(=O)NCCCNCCCCCCCCNCCCNC(=O)c3c[nH]c4ccc(OC)cc34)c2c1 [Compound 14d] | 60 µM (≈ 36.3 µg/mL) | 19.2 µM (≈ 11.6 µg/mL) | > 240 µM | 120 µM (≈ 72.6 µg/mL) | > 38 µM | > 38 µM | ≤ 0.3 µM | > 8 fold | 30.0 µM | 0.5 fold | 240 µM | > 38 µM | >38 µM | >38 µM
COc1ccc2[nH]cc(C(=O)NCCCNCCCCCCCCCCNCCCNC(=O)c3c[nH]c4ccc(OC)cc34)c2c1.O=C(O)C(F)(F)F.O=C(O)C(F)(F)F [Compound 14e] | 29 µM | ≤ 0.29 µM | 232 µM | 58.1 µM | > 37 µM | > 37 µM | ≤ 0.29 µM | 8 fold | 29.0 µM | 0.5 fold | 116 µM | > 37 µM | >37 µM | >37 µM
O=C(NCCCNCCCCCCNCCCNC(=O)c1c[nH]c2ccccc12)c1c[nH]c2ccccc12.O=C(O)C(F)(F)F.O=C(O)C(F)(F)F [Compound 12b] | 268 µM | ≤ 0.34 µM | > 268 µM | 134 µM | > 43 µM | > 43 µM | ≤ 0.34 µM | > 8 fold | 33.6 µM | 4 fold | 33.6 µM | > 43 µM | >43 µM | >43 µM
